Data set [1] can be described thus: pH of the zirconium oxychloride / arginine solutions. Type of data set: physicochemical. How it is done:
(§1) Samples were prepared according to Table 1. Water was added to zirconium oxychloride (ZrOCl2.8H2O, MW 322.25) in a glass jar to yield a clear solution containing 1% zirconium oxychloride. Under stirring, L-arginine was slowly added to prevent clumping of arginine as well as large fluctuations in localized pH values. The solutions were incubated for 1 day at 50° C. Then the solutions were cooled to room temperature. Solid gel was formed in samples with the molar ratio of arginine to zirconium oxychloride of 2-4.
A 100 g batch was prepared according to Table 2. 1% w/w zirconium oxychloride (ZrOCl2.8H2O, MW 322.25) and arginine were mixed in aqueous solution with the molar ratio of arginine to zirconium oxychloride of 1:1.
(§2) The zirconium oxychloride cluster was prepared as described in Example 1. The prepared zirconium oxychloride cluster was purified by gel permeability chromatograph (GPC). GPC column was prepared using Bio-Rad P2 gel with 5 μm particle size. Approximately 10 mL of prepared solution was filtered (0.45 μm) and loaded on the column using a HPLC pump at 0.2 mL/min. The mobile phase of the GPC chromatography was deionized water. Elution fractions were collected in intervals and monitored using SEC-RI. […] The pH of the GPC fraction (1160-1300 min) was 4.5. […] 10 g of this fraction was freeze dried to obtain purified powder for subsequent PXRD analysis.

The nature of data set [2]: Stability in terms of gelation and flocculation (clear or gel). Type of data set: physicochemical. The following applies: 1% zirconium oxychloride with varied arginine; incubated 1 day at 50° C., cooled to room temperature. Here is the method:
In some embodiments, the zirconium oxychloride cluster of the invention is stable at pH 2-6, 3-5, 3-4, 3.5-4.5 or 4-4.5, in solution, e.g., in aqueous solution.
as §1, §2

The conditions of data set [3]: solution of zirconium oxychloride which is effective as an antiperspirant; cited from earlier work.

As to `[Cl-].[Cl-].[O]=[Zr+2]` [Zr, zirconium oxychloride (ZrOCl2.8H2O, MW 322.25)], the pH in data set [1] (1% zirconium oxychloride with varied arginine, incubated 1 day at 50° C., cooled to room temperature) is listed as 1.39. In data set [1] (zirconium oxychloride alone, general statement), this molecule showed a pH value of less than 2. Besides, the “appearance (clear / gel)” value in data set [2] is listed as “clear”. The pH of solution entry in data set [3] was “about 0.8”.

The values are drawn from patent US20190185339A1, “Zirconium-Based Cluster as a Dentin Tubule Occlusion Agent” (Colgate-Palmolive Company, priority 2017, published 2019).
